Source: article PMC3927586, “Protein kinase C-delta inactivation inhibits the proliferation and survival of cancer stem cells in culture and in vivo” (BMC Cancer, 2014)

How the values were obtained:
PCSC cells = test: Cell proliferation (MTT) of pancreatic cancer stem cells; type: cell-based, human; settings: for IC50: Homo sapiens, read-out: IC50 (in culture), growth of PCSC; for IC50 / lowest concentration significantly inhibiting growth of PCSC cultures: 48 hr; for lowest concentration significantly inhibiting growth of PCSC cultures: p ≤ 0.02 vs vehicle
Description: Cell proliferation was assessed using an MTT [3-(4,5-dimethylthiazol-2-yl)-2,5-diphenyltetrazolium bromide] assay (Roche, Mannheim, Germany). The number of viable cells growing in a single well on a 96-well microtiter plate was estimated by adding 10 μl of MTT solution (5 mg/ml in phosphate-buffered saline [PBS]). After 4 h of incubation at 37°C, the stain was diluted with 100 μl of dimethyl sulfoxide. The optical densities were quantified at a test wavelength of 570 nm and a reference wavelength of 690 nm on a multiwell spectrophotometer. In some assays, MTS was used as substrate (Promega, Madison, WI), and the absorbance of the product was monitored at 490 nm. Cell enumeration was carried out using a hemocytometer, and viable cells identified by trypan blue exclusion.
Figure 2 Effects of PKCδ inhibitors on human cancer stem cells. (A) PCSC and PrCSC cells at 80% confluence were exposed to rottlerin. DMSO served as vehicle control (Vehicle). After 24 and 72 hr of exposure, cell mass was evaluated by MTT assay. Control values were normalized to 100%. p values for comparison between treatments reached significance at 24 hr of exposure (p≤0.01) for both cell types, and remained significant at 72 hr. (B) PCSC and PrCSC cells at 50% confluence were exposed to rottlerin. Cytotoxicity was evaluated by LDH-release assay. Total maximal LDH release was assigned the arbitrary value of 100% (Control). p values for comparison between effects of treatments on LDH release reached significance at 24 hr of exposure (p<0.01) for both cell types, and remained significant at 72 hr. (C) Effects of PKCδ inhibitor on tumor cell clonogenic capacity. PCSC were exposed to vehicle or rottlerin (10 μM) for 6, 18, 24, or 48 hr. Viable cells were enumerated and re-plated in media without inhibitor, and colony numbers were quantitated 15 days later. p values for comparison of treatment effects on clonogenic capacity reached significance (p=0.005) at 18 hr of exposure and remained significant for all subsequent exposure times. The insert is a photograph of stained colonies on plates. (D) Structures of staurosporine, rottlerin, second-generation (KAM1) and third-generation (BJE6-106) derivatives. (E) PCSC and PrCSC cells at 50% confluence were exposed to KAM1 at the indicated concentrations. DMSO served as vehicle control (Vehicle). Cytotoxicity was evaluated by LDH-release assay, as in panel B. p values for comparison between treatment effects on LDH release reached significance at 24 hr of exposure to 2.5 μM KAM1 for PCSC cells and at 10 μM for PrCSC (p≤0.01), and remained significant at 72 hr for all concentrations of KAM1. Error bars represent SEM.
Figure 3 Effects of a 3rd generation small molecule PKCδ inhibitor on human pancreatic cancer stem cell cultures. PCSC cells were grown to 80% confluence in 96-well plates and then exposed to BJE6-106 at concentrations ranging from 0.1 to 20 μM, or to rottlerin at concentrations ranging from 1 to 20 μM. The corresponding equivalent volume of solvent (DMSO) was used as a vehicle control (Vehicle). After 48 and 72 hr of exposure, cell mass was evaluated by MTT assay. Control values were normalized to 100%. Error bars represent SEM. p values for comparison between vehicle and rottlerin effects on cell number at 48 hr reached significance at 1 μM, and for BJE6-106 at 0.1 μM (p ≤ 0.02), and remained significant at the 72 hr time point.

Hs578T cells = test: Tumor spheroid formation, Hs578T; type: cell-based, human; settings: for effect on formation of spheroids, Hs578T: added to culture medium, 96 hr, p≤0.001
Description: (§1) Tumor self-renewing and anchorage-independent spheroids were obtained by culturing breast cancer cells MCF7, Hs587T and MDA231; melanoma cells SBcl2 and FM6; human breast cancer stem cells and pancreatic cancer stem cells in stem cell-selective conditions according to the manufacturer’s instructions (StemCell Technologies, Tukwila, WA). Briefly, cancer and cancer stem cells were propagated in 6-well ultra-low adherent plates (Corning) in Complete MammoCult Medium (Human) by adding 50 mL of MammoCult Proliferation Supplements to 450 mL of MammoCult Basal Medium (StemCell Technologies). The following were added to obtain Complete MammoCult Medium: 4 ug/mL Heparin (StemCell Technologies), 0.48 μg/mL hydrocortisone (StemCell Technologies), 200 U penicillin/ml; and 200 μg streptomycin/ml (Invitrogen).
Figure 4 Effects of PKCδ inhibitors on human tumor cell spheroid formation. (A) Hs578T and MCF7 were plated under adherent or non-adherent conditions. Tumor spheroids and adherent cells were collected at 96 hr, stained for CD24 and CD44, and analyzed by flow cytometry. (B) Hs578T, MCF7, breast cancer stem cells (BCSC) and pancreatic cancer stem cells (PCSC) were plated in tumor spheroid media, in the presence of rottlerin, BJE6-106, or DMSO (Control). Tumor spheroids were enumerated at 96 hr, and normalized to the number of spheroids in the control cultures (assigned an arbitrary value of 100%). p values for comparison between vehicle and rottlerin or BJE6-106 effects were significant (p≤0.001). Photographs are of representative areas of the culture plates. (C) MCF7 cells were exposed BJE6-106 or to rottlerin at the indicated concentrations. The corresponding equivalent volume of solvent (DMSO) was used as a vehicle control (Vehicle). After 24, 48 and 72 hr of exposure, cell mass was evaluated by MTT assay. Control values were normalized to 100%. p values for comparison between vehicle and rottlerin effects on cell number at 24 hr reached significance at 5 μM, and for BJE6-106 at 0.5 μM (p ≤ 0.02), and were significant for all concentrations tested at 48 and 72 hr time points. (D) Hs578T cells were exposed to vehicle or BJE6-106 (1 μM) for 6, 12, 24, 48 or 96 hr. Viable cells were enumerated and re-plated in media without BJE6-206, and spheroid numbers were quantitated 96 hr later. p values for comparison between vehicle and BJE6-106 effects on spheroid number were significant after 6 hr of exposure (p≤0.02), and remained significant at all time points thereafter. Error bars represent SEM.

[1] = tested on: breast cancer stem cells (BCSC); test: Tumor spheroid formation, BCSC; type: cell-based, human; settings: added to culture medium, 96 hr, p≤0.001
Description: as §1
Figure 4 Effects of PKCδ inhibitors on human tumor cell spheroid formation. […] Tumor spheroids and adherent cells were collected at 96 hr, stained for CD24 and CD44, and analyzed by flow cytometry. […] After 24, 48 and 72 hr of exposure, cell mass was evaluated by MTT assay. […] Viable cells were enumerated and re-plated in media without BJE6-206, and spheroid numbers were quantitated 96 hr later. p values for comparison between vehicle and BJE6-106 effects on spheroid number were significant after 6 hr of exposure (p≤0.02), and remained significant at all time points thereafter. […]

MiaPaCa2 = test: Tumor spheroid growth, MiaPaCa2 pancreatic cancer; type: cell-based, human; settings: p < 0.001
[2] = Drug-like properties: bioavailability; settings: in vivo delivery

CC(=O)c1c(O)c(C)c(O)c(Cc2c(O)c3c(c(C(=O)/C=C/c4ccccc4)c2O)OC(C)(C)C=C3)c1O [rottlerin, Rottlerin, reference compound]
growth-inhibitory activity on PCSC at 0.5 μM (PCSC cells; 0.5 μM): no significant inhibitory activity | IC50 (PCSC cells; MTT): ~3000 nM | lowest concentration significantly inhibiting growth of PCSC cultures (PCSC cells; MTT): 1 µM | effect on proliferation of PCSC (PCSC cells; MTT, as early as 24 hr after exposure): significant dose-dependent inhibition of proliferation | effect on formation of spheroids, Hs578T (Hs578T cells): very efficiently inhibited | effect on formation of spheroids, BCSC [1]: very efficiently inhibited | inhibition at 10 µM (MiaPaCa2; Homo sapiens, MIA PaCa-2, rottlerin at 10 μM): > 97% | bioavailability [2]: readily bioavailable

CC1(C)C=Cc2cc(CCn3c4ccccc4c4ccccc43)cc(C=O)c2O1 [BJE6-106, 6-(2-(9H-carbazol-9-yl)ethyl)-2,2-dimethyl-2H-chromene-8-carbaldehyde]
IC50 (PCSC cells; MTT): ~500 nM | lowest concentration significantly inhibiting growth of PCSC cultures (PCSC cells; MTT): 0.1 µM | exposure time for near maximum inhibition of spheroid formation (washout) (Hs578T cells; BJE6-106 at 1 μM, Hs578T): ≤ 24 h | exposure time that significantly repressed spheroid formation (washout) (Hs578T cells; BJE6-106 at 1 μM, Hs578T, spheroids counted 96 hr after re-plating): 6 h | effect on formation of spheroids, Hs578T (Hs578T cells): very efficiently inhibited | effect on formation of spheroids, BCSC [1]: very efficiently inhibited | inhibition of tumor spheroid growth, MiaPaCa2 (MiaPaCa2; BJE6-106 at 0.5-1.0 μM): > 97% | bioavailability [2]: poorly bioavailable
